Reference: US9850283B2, “Macrocyclic inhibitors of the PD-1/PD-L1 and CD80(B7-1)/PD-L1 protein/protein interactions” (BRISTOL-MYERS SQUIBB COMPANY, priority 2013, dated 2017)
Positions of bridges follow the written chain, without caps; N, C: chain ends. Non-standard residues stand in square brackets, D forms with d. Residues, ends and D or L forms follow the SMILES beside them. Phe(3,4-(OMe)2) = COc1ccc(C[C@H](N)C(=O)O)cc1OC; Phe(3-CF3) = N[C@@H](Cc1cccc(C(F)(F)F)c1)C(=O)O; Phe(4-CF3) = N[C@@H](Cc1ccc(C(F)(F)F)cc1)C(=O)O; Phe(4-CONH2) = NC(=O)c1ccc(C[C@H](N)C(=O)O)cc1; Phe(4-tBu) = CC(C)(C)c1ccc(C[C@H](N)C(=O)O)cc1; Phe(3-CN) = N#Cc1cccc(C[C@H](N)C(=O)O)c1; Phe(4-CN) = N#Cc1ccc(C[C@H](N)C(=O)O)cc1; Phe(3-Me) = Cc1cccc(C[C@H](N)C(=O)O)c1; Hyp = O=C(O)[C@@H]1C[C@@H](O)CN1; 2Pal = N[C@@H](Cc1ccccn1)C(=O)O; 4Pal = N[C@@H](Cc1ccncc1)C(=O)O; NMeNle = CCCC[C@H](NC)C(=O)O; NMeA = CN[C@@H](C)C(=O)O; Dap = NC[C@H](N)C(=O)O

Tests used:
Human PD-L1/PD-1 = molecular target: T1, Human PD-L1/PD-1 (Homo sapiens, UniProt Q9NZQ7); test: HTRF PD-1-Ig/PD-L1-His binding assay (human PD-L1); conditions: cluster symbol; read-out: HTRF IC50 cluster
T1 construct: made in house; host or cells: HEK293T
T1 sequence (Q9NZQ7 with tags, fused parts or gaps): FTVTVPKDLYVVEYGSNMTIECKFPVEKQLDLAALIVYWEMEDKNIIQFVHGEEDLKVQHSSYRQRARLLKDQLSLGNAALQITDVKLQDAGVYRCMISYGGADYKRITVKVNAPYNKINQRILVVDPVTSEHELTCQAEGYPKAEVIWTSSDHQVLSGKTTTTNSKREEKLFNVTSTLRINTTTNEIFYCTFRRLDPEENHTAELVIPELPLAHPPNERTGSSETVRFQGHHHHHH
Method in brief: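 HTRF read-out: Eu cryptate anti-Ig mAb 1 nM final, APC anti-His mAb 20 nM final, added over the binding reaction. Proteins were PD-1-Ig and PD-L1-His ectodomain fusions. Buffer was dPBS, 0.1% BSA, 0.05% Tween-20.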

[1] = molecular target: T2, LK35.2-hPD-L1 cells / PE-labeled PD-1-Ig (Homo sapiens, UniProt Q9NZQ7); test: LK35.2-hPD-L1 cell binding high-content screening assay; format: cell-based; conditions: cell binding assay, cell line not given; cluster symbol; read-out: CBA IC50 cluster
T2 construct: expressed in transfected cells; host or cells: LK35.2 mouse B cell line
T2 sequence (Q9NZQ7 19-290): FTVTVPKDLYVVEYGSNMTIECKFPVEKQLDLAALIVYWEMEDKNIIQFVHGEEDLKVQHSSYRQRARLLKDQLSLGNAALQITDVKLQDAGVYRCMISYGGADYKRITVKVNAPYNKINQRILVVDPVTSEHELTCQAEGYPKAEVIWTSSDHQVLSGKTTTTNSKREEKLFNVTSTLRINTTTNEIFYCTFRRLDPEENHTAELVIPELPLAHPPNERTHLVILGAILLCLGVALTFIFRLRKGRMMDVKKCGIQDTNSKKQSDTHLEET
Method in brief: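 Fluorescent PD-1-Ig binding to PD-L1-expressing LK35.2 cells, imaged after washing. Conditions: 1 nM PE-PD-1-Ig, 37 °C, 1 h, RPMI with 10% fetal calf serum.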

| Structure (SMILES) | IC50 (Human PD-L1/PD-1) [nM] | IC50 [1] [nM] |
| --- | --- | --- |
| CCCC[C@H]1C(=O)N(C)[C@@H](CCCC)C(=O)N[C@@H](CCCNC(=N)N)C(=O)N[C@H](C(=O)NCC(N)=O)CSCC(=O)N[C@@H](Cc2ccc(O)cc2)C(=O)N(C)[C@@H](C)C(=O)N[C@@H](CC(N)=O)C(=O)N2CCC[C@H]2C(=O)N[C@@H](Cc2ccccn2)C(=O)N[C@@H](CC(C)C)C(=O)N2C[C@H](O)C[C@H]2C(=O)N[C@@H](Cc2c[nH]c3ccccc23)C(=O)N[C@@H](CO)C(=O)N[C@@H](Cc2c[nH]c3ccccc23)C(=O)N1C [Example 7026] ({CH2CO}-Y[NMeA]NP[2Pal]L[Hyp]WSW[NMeNle][NMeNle]RCG-NH2; thioether N-14) | 6.76 to 30.3 | 4.78 to 72.9 |
| CCCC[C@H]1C(=O)N(C)[C@@H](CCCC)C(=O)N[C@@H](CCCNC(=N)N)C(=O)N[C@H](C(=O)NCC(N)=O)CSCC(=O)N[C@@H](Cc2ccc(O)cc2)C(=O)N(C)[C@@H](C)C(=O)N[C@@H](CC(N)=O)C(=O)N2CCC[C@H]2C(=O)N[C@@H](Cc2ccncc2)C(=O)N[C@@H](CC(C)C)C(=O)N2C[C@H](O)C[C@H]2C(=O)N[C@@H](Cc2c[nH]c3ccccc23)C(=O)N[C@@H](CO)C(=O)N[C@@H](Cc2c[nH]c3ccccc23)C(=O)N1C [Example 7028] ({CH2CO}-Y[NMeA]NP[4Pal]L[Hyp]WSW[NMeNle][NMeNle]RCG-NH2; thioether N-14) | 6.76 to 30.3 | 0.158 to 4.71 |
| CCCC[C@H]1C(=O)N(C)[C@@H](CCCC)C(=O)N[C@@H](CCCNC(=N)N)C(=O)N[C@H](C(=O)NCC(N)=O)CSCC(=O)N[C@@H](Cc2ccncc2)C(=O)N(C)[C@@H](C)C(=O)N[C@@H](CC(N)=O)C(=O)N2CCC[C@H]2C(=O)N[C@@H](Cc2cnc[nH]2)C(=O)N[C@@H](CC(C)C)C(=O)N2C[C@H](O)C[C@H]2C(=O)N[C@@H](Cc2c[nH]c3ccccc23)C(=O)N[C@@H](CO)C(=O)N[C@@H](Cc2c[nH]c3ccccc23)C(=O)N1C [Example 7029] ({CH2CO}-[4Pal][NMeA]NPHL[Hyp]WSW[NMeNle][NMeNle]RCG-NH2; thioether N-14) | > 30.5 | 4.78 to 72.9 |
| CCCC[C@H]1C(=O)N(C)[C@@H](CCCC)C(=O)N[C@@H](CCCNC(=N)N)C(=O)N[C@H](C(=O)NCC(N)=O)CSCC(=O)N[C@@H](Cc2ccc(C(C)(C)C)cc2)C(=O)N(C)[C@@H](C)C(=O)N[C@@H](CC(N)=O)C(=O)N2CCC[C@H]2C(=O)N[C@@H](CN)C(=O)N[C@@H](CC(C)C)C(=O)N2C[C@H](O)C[C@H]2C(=O)N[C@@H](Cc2c[nH]c3ccccc23)C(=O)N[C@@H](CO)C(=O)N[C@@H](Cc2c[nH]c3ccccc23)C(=O)N1C [Example 7036] ({CH2CO}-[Phe(4-tBu)][NMeA]NP[Dap]L[Hyp]WSW[NMeNle][NMeNle]RCG-NH2; thioether N-14) | 6.76 to 30.3 | > 74.3 |
| CCCC[C@H]1C(=O)N(C)[C@@H](CCCC)C(=O)N[C@@H](CCCNC(=N)N)C(=O)N[C@H](C(=O)NCC(N)=O)CSCC(=O)N[C@@H](Cc2cccc(C#N)c2)C(=O)N(C)[C@@H](C)C(=O)N[C@@H](CC(N)=O)C(=O)N2CCC[C@H]2C(=O)N[C@@H](CN)C(=O)N[C@@H](CC(C)C)C(=O)N2C[C@H](O)C[C@H]2C(=O)N[C@@H](Cc2c[nH]c3ccccc23)C(=O)N[C@@H](CO)C(=O)N[C@@H](Cc2c[nH]c3ccccc23)C(=O)N1C [Example 7037] ({CH2CO}-[Phe(3-CN)][NMeA]NP[Dap]L[Hyp]WSW[NMeNle][NMeNle]RCG-NH2; thioether N-14) | 6.76 to 30.3 | 4.78 to 72.9 |
| CCCC[C@H]1C(=O)N(C)[C@@H](CCCC)C(=O)N[C@@H](CCCNC(=N)N)C(=O)N[C@H](C(=O)NCC(N)=O)CSCC(=O)N[C@@H](Cc2ccc(OC)c(OC)c2)C(=O)N(C)[C@@H](C)C(=O)N[C@@H](CC(N)=O)C(=O)N2CCC[C@H]2C(=O)N[C@@H](CN)C(=O)N[C@@H](CC(C)C)C(=O)N2C[C@H](O)C[C@H]2C(=O)N[C@@H](Cc2c[nH]c3ccccc23)C(=O)N[C@@H](CO)C(=O)N[C@@H](Cc2c[nH]c3ccccc23)C(=O)N1C [Example 7040] ({CH2CO}-[Phe(3,4-(OMe)2)][NMeA]NP[Dap]L[Hyp]WSW[NMeNle][NMeNle]RCG-NH2; thioether N-14) | 0.385 to 6.74 | 4.78 to 72.9 |
| CCCC[C@H]1C(=O)N(C)[C@@H](CCCC)C(=O)N[C@@H](CCCNC(=N)N)C(=O)N[C@H](C(=O)NCC(N)=O)CSCC(=O)N[C@@H](Cc2ccc(C(N)=O)cc2)C(=O)N(C)[C@@H](C)C(=O)N[C@@H](CC(N)=O)C(=O)N2CCC[C@H]2C(=O)N[C@@H](CN)C(=O)N[C@@H](CC(C)C)C(=O)N2C[C@H](O)C[C@H]2C(=O)N[C@@H](Cc2c[nH]c3ccccc23)C(=O)N[C@@H](CO)C(=O)N[C@@H](Cc2c[nH]c3ccccc23)C(=O)N1C [Example 7041] ({CH2CO}-[Phe(4-CONH2)][NMeA]NP[Dap]L[Hyp]WSW[NMeNle][NMeNle]RCG-NH2; thioether N-14) | 6.76 to 30.3 | 4.78 to 72.9 |

The next lines start with the values.

| IC50 (Human PD-L1/PD-1) [nM] | IC50 [1] [nM] | Structure (SMILES) |
| --- | --- | --- |
| 0.385 to 6.74 | 4.78 to 72.9 | CCCC[C@H]1C(=O)N(C)[C@@H](CCCC)C(=O)N[C@@H](CCCNC(=N)N)C(=O)N[C@H](C(=O)NCC(N)=O)CSCC(=O)N[C@@H](Cc2ccc(C(F)(F)F)cc2)C(=O)N(C)[C@@H](C)C(=O)N[C@@H](CC(N)=O)C(=O)N2CCC[C@H]2C(=O)N[C@@H](CN)C(=O)N[C@@H](CC(C)C)C(=O)N2C[C@H](O)C[C@H]2C(=O)N[C@@H](Cc2c[nH]c3ccccc23)C(=O)N[C@@H](CO)C(=O)N[C@@H](Cc2c[nH]c3ccccc23)C(=O)N1C [Example 7030] ({CH2CO}-[Phe(4-CF3)][NMeA]NP[Dap]L[Hyp]WSW[NMeNle][NMeNle]RCG-NH2; thioether N-14) |
| 0.385 to 6.74 | 4.78 to 72.9 | CCCC[C@H]1C(=O)N(C)[C@@H](CCCC)C(=O)N[C@@H](Cc2ccncc2)C(=O)N[C@H](C(=O)NCC(N)=O)CSCC(=O)N[C@@H](Cc2ccc(O)cc2)C(=O)N(C)[C@@H](C)C(=O)N[C@@H](CC(N)=O)C(=O)N2CCC[C@H]2C(=O)N[C@@H](Cc2cnc[nH]2)C(=O)N[C@@H](CC(C)C)C(=O)N2C[C@H](O)C[C@H]2C(=O)N[C@@H](Cc2c[nH]c3ccccc23)C(=O)N[C@@H](CO)C(=O)N[C@@H](Cc2c[nH]c3ccccc23)C(=O)N1C [Example 7031] |
| 0.385 to 6.74 | 4.78 to 72.9 | CCCC[C@H]1C(=O)N(C)[C@@H](CCCC)C(=O)N[C@@H](Cc2ccccn2)C(=O)N[C@H](C(=O)NCC(N)=O)CSCC(=O)N[C@@H](Cc2ccc(O)cc2)C(=O)N(C)[C@@H](C)C(=O)N[C@@H](CC(N)=O)C(=O)N2CCC[C@H]2C(=O)N[C@@H](Cc2cnc[nH]2)C(=O)N[C@@H](CC(C)C)C(=O)N2C[C@H](O)C[C@H]2C(=O)N[C@@H](Cc2c[nH]c3ccccc23)C(=O)N[C@@H](CO)C(=O)N[C@@H](Cc2c[nH]c3ccccc23)C(=O)N1C [Example 7032] |
| 0.385 to 6.74 | 0.158 to 4.71 | CCCC[C@H]1C(=O)N(C)[C@@H](CCCC)C(=O)N[C@@H](Cc2cccnc2)C(=O)N[C@H](C(=O)NCC(N)=O)CSCC(=O)N[C@@H](Cc2ccc(O)cc2)C(=O)N(C)[C@@H](C)C(=O)N[C@@H](CC(N)=O)C(=O)N2CCC[C@H]2C(=O)N[C@@H](Cc2cnc[nH]2)C(=O)N[C@@H](CC(C)C)C(=O)N2C[C@H](O)C[C@H]2C(=O)N[C@@H](Cc2c[nH]c3ccccc23)C(=O)N[C@@H](CO)C(=O)N[C@@H](Cc2c[nH]c3ccccc23)C(=O)N1C [Example 7033] |
| 0.385 to 6.74 | 4.78 to 72.9 | CCCC[C@H]1C(=O)N(C)[C@@H](CCCC)C(=O)N[C@@H](CCCNC(=N)N)C(=O)N[C@H](C(=O)NCC(N)=O)CSCC(=O)N[C@@H](Cc2cccc(C(F)(F)F)c2)C(=O)N(C)[C@@H](C)C(=O)N[C@@H](CC(N)=O)C(=O)N2CCC[C@H]2C(=O)N[C@@H](CN)C(=O)N[C@@H](CC(C)C)C(=O)N2C[C@H](O)C[C@H]2C(=O)N[C@@H](Cc2c[nH]c3ccccc23)C(=O)N[C@@H](CO)C(=O)N[C@@H](Cc2c[nH]c3ccccc23)C(=O)N1C [Example 7034] ({CH2CO}-[Phe(3-CF3)][NMeA]NP[Dap]L[Hyp]WSW[NMeNle][NMeNle]RCG-NH2; thioether N-14) |
| 0.385 to 6.74 | 4.78 to 72.9 | CCCC[C@H]1C(=O)N(C)[C@@H](CCCC)C(=O)N[C@@H](CCCNC(=N)N)C(=O)N[C@H](C(=O)NCC(N)=O)CSCC(=O)N[C@@H](Cc2cccc(C)c2)C(=O)N(C)[C@@H](C)C(=O)N[C@@H](CC(N)=O)C(=O)N2CCC[C@H]2C(=O)N[C@@H](CN)C(=O)N[C@@H](CC(C)C)C(=O)N2C[C@H](O)C[C@H]2C(=O)N[C@@H](Cc2c[nH]c3ccccc23)C(=O)N[C@@H](CO)C(=O)N[C@@H](Cc2c[nH]c3ccccc23)C(=O)N1C [Example 7035] ({CH2CO}-[Phe(3-Me)][NMeA]NP[Dap]L[Hyp]WSW[NMeNle][NMeNle]RCG-NH2; thioether N-14) |
| 0.385 to 6.74 | 0.158 to 4.71 | CCCC[C@H]1C(=O)N(C)[C@@H](CCCC)C(=O)N[C@@H](CCCNC(=N)N)C(=O)N[C@H](C(=O)NCC(N)=O)CSCC(=O)N[C@@H](Cc2ccc(C#N)cc2)C(=O)N(C)[C@@H](C)C(=O)N[C@@H](CC(N)=O)C(=O)N2CCC[C@H]2C(=O)N[C@@H](CN)C(=O)N[C@@H](CC(C)C)C(=O)N2C[C@H](O)C[C@H]2C(=O)N[C@@H](Cc2c[nH]c3ccccc23)C(=O)N[C@@H](CO)C(=O)N[C@@H](Cc2c[nH]c3ccccc23)C(=O)N1C [Example 7038] ({CH2CO}-[Phe(4-CN)][NMeA]NP[Dap]L[Hyp]WSW[NMeNle][NMeNle]RCG-NH2; thioether N-14) |
| 0.385 to 6.74 | 0.158 to 4.71 | CCCC[C@H]1C(=O)N(C)[C@@H](CCCC)C(=O)N[C@@H](CCCNC(=N)N)C(=O)N[C@H](C(=O)NCC(N)=O)CSCC(=O)N[C@@H](Cc2ccc(OC)cc2)C(=O)N(C)[C@@H](C)C(=O)N[C@@H](CC(N)=O)C(=O)N2CCC[C@H]2C(=O)N[C@@H](CN)C(=O)N[C@@H](CC(C)C)C(=O)N2C[C@H](O)C[C@H]2C(=O)N[C@@H](Cc2c[nH]c3ccccc23)C(=O)N[C@@H](CO)C(=O)N[C@@H](Cc2c[nH]c3ccccc23)C(=O)N1C [Example 7039] ({CH2CO}-Y(Me)[NMeA]NP[Dap]L[Hyp]WSW[NMeNle][NMeNle]RCG-NH2; thioether N-14) |
